Structures are written as SMILES. Values after ≈ are worked out from the molar mass of the structure shown.

The nature of data set [1]: Redispersion solubility test of solid dispersions (SGF, then SGF + 2 times volume FaSSIF). In kind it is physicochemical. Particulars: Concentration 1 mg/mL. As for the experimental part:
[…] After stirring at 37° C. for 0.25 h and 0.5 h at 500 rpm, about 200 μL of the suspension was centrifuged at 14,000 rpm for 5 min, and the supernatant was diluted by 6 times with diluent for HPLC analysis. After sampling at 0.5 h, 2 times the volume of SGF of FaSSIF was immediately added to the suspension and the mixture was stirred for another 0.25 h, 0.5 h and 1.5 h, and then sampled for HPLC analysis and pH testing.

Data set [2] is described as follows: Solubility of rapid solvent evaporation products in FaSSIF. Type of data set: physicochemical. The note with it: fassif, thermodynamic from solid. As for the experimental part: About 10 mg of the API control of the compound of formula A and 40 mg of the polymer carrier were transferred to 1 mL of DCM:EtOH=9:1 (v/v) to prepare a solution with 20% drug loading. The resulting clear solution was rapidly evaporated at 80° C. until there was no liquid to prepare a solid dispersion. The API control of the compound of formula A was also treated separately in the same manner.

A short description of data set [3]: In vivo pharmacokinetic study of solid dispersions. The arrangement: species or system Sprague Dawley (SD) rats. The note with it: male SD rats, intragastric 300 mg/kg (as compound of formula A), plasma. The procedure:
According to Table 16, three solid dispersions, namely, formulation of API+Soluplus, formulation of API+PVP VA64 and formulation of API+HPC SSL, were selected to conduct in vivo pharmacokinetic tests with the corresponding amorphous form of API to study the pharmacokinetic characteristics of solid dispersions with different formulations in animals.
Method: solid dispersions with different formulations were evaluated with the pharmacokinetic characteristics of male Sprague Dawley (SD) rats after intragastric administration.
Materials: SD Rats (Male, 200-250 g, 6-8 Weeks Old, Zhejiang Weitong Lihua).
Steps: the solid dispersion with the formulation of Table 16 was tested by intragastric administration of 300 mg/kg (dosage calculated according to the compound of formula A) to SD rats, and the solvent was 25 mM citrate buffer pH3 containing 5% Tween 80. The animals were free to eat and drink water. Blood was collected from the jugular vein 15 min (0.25 h), 30 min (0.5 h), 60 min (1 h), 2 h, 4 h, 6 h, 8 h and 24 h after administration. Whole blood was collected in an anticoagulant tube containing EDTA-K2, and after thorough mixing, it was centrifuged at 4° C. and 4000 g for 5 minutes to separate plasma. Plasma samples were stored at −75±15° C. until the blood concentration of the compound of formula A was determined by LC-MS/MS. The relevant pharmacokinetic parameters were calculated using the non-compartmental model and linear/log trapezoidal method of Phoenix WinNonlin 6.1.

For `O=C1CC[C@H](N2Cc3cc(C(=O)N[C@H](c4ccc(Cl)cn4)C4CCC4)ccc3C2=O)C(=O)N1` [Amorphous form of API, N—((S)-(5-chloropyridin-2-yl)(cyclobutyl)methyl)-2-((S)-2,6-dioxopiperidin-3-yl)-1-oxoisoindoline-5-carboxamide], the “End point pH” value in data set [1] was found to be 6.55. Further, the solubility (commonly the concentration that dissolves in the medium under given conditions) at 0.75 h was 460 µg/mL in data set [1] (SGF + 2 times volume FaSSIF, fassif, thermodynamic from solid, 37° C., read-out: Redispersion solubility, Step 2: SGF + 2 times volume FaSSIF (0.75 hr)) and 600 µg/mL (≈ 1290 µM) in data set [2] (0.75 h). The solubility at 1 h in data set [1] (SGF + 2 times volume FaSSIF, fassif, thermodynamic from solid, 37° C., read-out: Redispersion solubility, Step 2: SGF + 2 times volume FaSSIF (1.0 hr)) was 440 µg/mL; in data set [2] (1 h), 570 µg/mL (≈ 1220 µM). Also, the solubility at 2 h in data set [1] (SGF + 2 times volume FaSSIF, pH 6.55, fassif, thermodynamic from solid, 37° C., read-out: Redispersion solubility, Step 2: SGF + 2 times volume FaSSIF (2.0 hr)) was 270 µg/mL; in data set [2] (2 h) it was 450 µg/mL (≈ 964 µM). Besides, the solubility at 0.25 h was 960 µg/mL in data set [1] (simulated gastric fluid (SGF), simulated gastric fluid, thermodynamic from solid, 37° C., read-out: Redispersion solubility, Step 1: SGF (0.25 hr)) and 470 µg/mL (≈ 1010 µM) in data set [2] (0.25 h). For the same compound, the solubility at 0.5 h in data set [1] (simulated gastric fluid (SGF), simulated gastric fluid, thermodynamic from solid, 37° C., read-out: Redispersion solubility, Step 1: SGF (0.5 hr)) is 980 µg/mL; in data set [2] (0.5 h) it was 490 µg/mL (≈ 1050 µM). Also, the AUC(0-inf) – broadly, the area under the concentration-time curve extrapolated to infinity – in data set [3] (Sprague Dawley, rat, po) came to 112 µg·h/mL. The AUC(0-t) – broadly, exposure summed from dosing to a finite time, without extrapolation to infinity – in data set [3] (Sprague Dawley, rat, po) is 111 µg·h/mL. In addition, the highest level in data set [3] (Sprague Dawley, rat, po) (Cmax) was 18700 ng/mL. In addition, the Tmax (in general, the time at which the peak concentration occurs) in data set [3] (Sprague Dawley, rat, po) turned out to be 1 h. The half-life (as a rule, the time in which the quantity being followed falls by half) in data set [3] (Sprague Dawley, rat, po) was 4.06 h. The compound also returned an AUClast/D in data set [3] of 369 ng·kg·h/mL/mg.
